Assay results as given in ChEMBL document CHEMBL1201862, “PubChem BioAssay data set” (2004).
Values belong to the molecule of their own block, whether it stands above or below them. Active and inactive are the calls of the source.

How the values were obtained:
[1] = biological target: T1, Voltage-gated N-type calcium channel alpha-1B subunit/Amyloid beta A4 precursor protein-binding family A member 1 (Homo sapiens, UniProt Q00975+Q02410); assay type: protein assay
[2] = biological target: T2, Runt-related transcription factor 1/Core-binding factor subunit beta (Homo sapiens, UniProt Q01196+Q13951); assay: disruptors of Runt domain/CBFb-SMMHC interaction – biochemical, FRET, Cerulean-Runt, Venus-CBFb-SMMHC, uHTS, […] (AID 1434); assay type: protein assay
T2 sequence (Q01196 whole entry, the tested form may be a part): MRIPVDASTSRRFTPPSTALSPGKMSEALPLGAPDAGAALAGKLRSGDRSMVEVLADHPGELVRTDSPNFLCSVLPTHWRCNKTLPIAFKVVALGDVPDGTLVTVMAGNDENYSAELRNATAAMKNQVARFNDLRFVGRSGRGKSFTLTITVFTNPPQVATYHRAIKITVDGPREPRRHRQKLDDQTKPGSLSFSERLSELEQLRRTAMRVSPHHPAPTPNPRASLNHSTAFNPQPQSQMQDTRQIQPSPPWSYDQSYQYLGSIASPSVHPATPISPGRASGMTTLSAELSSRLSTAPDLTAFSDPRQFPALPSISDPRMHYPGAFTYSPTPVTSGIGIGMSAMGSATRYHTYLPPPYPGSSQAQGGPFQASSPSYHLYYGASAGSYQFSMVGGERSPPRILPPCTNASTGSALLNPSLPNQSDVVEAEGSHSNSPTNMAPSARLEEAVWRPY
T2 sequence (Q13951 whole entry, the tested form may be a part): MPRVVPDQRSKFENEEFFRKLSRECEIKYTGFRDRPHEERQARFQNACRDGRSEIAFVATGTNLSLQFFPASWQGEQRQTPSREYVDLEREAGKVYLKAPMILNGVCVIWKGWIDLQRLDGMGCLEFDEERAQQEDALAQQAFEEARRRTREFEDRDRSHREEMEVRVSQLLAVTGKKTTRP

[3] = biological target: T2, Runt-related transcription factor 1/Core-binding factor subunit beta; assay: Runt domain/CBFb-SMMHC interaction disruptors – biochemical, TR-FRET (AID 1438); assay type: protein assay
[4] = biological target: T3, Heat shock factor protein 1 (Mus musculus, UniProt P38532); assay: enhancement of HSF1-driven luciferase signal – cell-based, NIH3T3, luminescence, dose retest, confirmation (AID 435004); assay type: functional;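 also: stress induced by proteasome inhibitor MG132 added 30 min after compound; luciferase reporter driven by HSF1 response element in NIH3T3 cells; actives raise luminescence as potentiators of the MG132 stress response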
T3 sequence (P38532 whole entry): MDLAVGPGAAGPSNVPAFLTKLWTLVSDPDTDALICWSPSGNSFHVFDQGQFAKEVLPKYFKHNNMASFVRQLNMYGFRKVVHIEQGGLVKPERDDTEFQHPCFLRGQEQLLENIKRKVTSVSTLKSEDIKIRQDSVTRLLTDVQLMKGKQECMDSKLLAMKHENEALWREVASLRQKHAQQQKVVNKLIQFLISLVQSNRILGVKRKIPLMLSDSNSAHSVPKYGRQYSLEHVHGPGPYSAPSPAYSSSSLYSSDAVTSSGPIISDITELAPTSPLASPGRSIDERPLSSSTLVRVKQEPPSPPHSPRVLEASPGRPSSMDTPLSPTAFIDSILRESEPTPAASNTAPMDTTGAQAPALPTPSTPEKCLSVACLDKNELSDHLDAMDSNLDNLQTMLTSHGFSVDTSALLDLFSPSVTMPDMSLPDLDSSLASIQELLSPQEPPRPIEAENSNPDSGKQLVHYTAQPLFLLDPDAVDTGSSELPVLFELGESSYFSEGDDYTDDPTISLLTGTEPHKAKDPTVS

[5] = biological target: T1, Voltage-gated N-type calcium channel alpha-1B subunit/Amyloid beta A4 precursor protein-binding family A member 1; assay type: protein assay; remark: listed apart in the source
[6] = biological target: DNA damage-inducible transcript 3 protein (Mus musculus, UniProt P35639); assay type: functional, Cricetulus griseus
[7] = biological target: T4, G-protein coupled receptor 35 (Homo sapiens, UniProt Q9HC97); assay: SAR analysis of Antagonists of the GPR35 Receptor using an Image-Based Assay - Set 4. [Related pubchem assays (depositor defined):[…]]; assay type: functional
T4 sequence (Q9HC97 whole entry): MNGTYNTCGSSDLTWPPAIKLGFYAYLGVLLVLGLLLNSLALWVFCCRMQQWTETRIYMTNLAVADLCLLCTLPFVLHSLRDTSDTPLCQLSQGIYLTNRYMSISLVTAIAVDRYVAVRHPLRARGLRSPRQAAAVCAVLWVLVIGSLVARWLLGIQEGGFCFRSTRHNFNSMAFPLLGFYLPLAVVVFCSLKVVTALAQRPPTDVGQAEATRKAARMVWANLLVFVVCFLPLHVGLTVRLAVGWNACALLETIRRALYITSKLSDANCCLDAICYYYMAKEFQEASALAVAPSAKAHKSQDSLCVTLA

Cannabinoid receptor 1 [8] = biological target: T5, Cannabinoid receptor 1 (Homo sapiens, UniProt P21554); assay: SAR analysis of agonists of the Cannabinoid Receptor 1 using an Image-Based Assay - Set 3. [Related pubchem assays (depositor defined):AID1961, AID1965]; assay type: functional
T5 sequence (P21554 whole entry): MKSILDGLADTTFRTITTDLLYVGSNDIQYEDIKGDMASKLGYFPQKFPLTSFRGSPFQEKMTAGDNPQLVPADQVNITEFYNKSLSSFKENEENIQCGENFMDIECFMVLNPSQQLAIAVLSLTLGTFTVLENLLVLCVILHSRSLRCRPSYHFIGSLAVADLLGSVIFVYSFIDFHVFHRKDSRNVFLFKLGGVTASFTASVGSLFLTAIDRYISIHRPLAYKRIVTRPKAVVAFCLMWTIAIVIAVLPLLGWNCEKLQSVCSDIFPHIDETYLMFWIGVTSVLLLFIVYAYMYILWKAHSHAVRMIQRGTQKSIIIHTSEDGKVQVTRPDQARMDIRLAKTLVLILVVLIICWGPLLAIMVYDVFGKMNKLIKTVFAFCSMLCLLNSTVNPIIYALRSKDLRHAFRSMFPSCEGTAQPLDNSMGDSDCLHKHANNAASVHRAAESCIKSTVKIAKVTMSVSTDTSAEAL

[9] = biological target: T4, G-protein coupled receptor 35; assay: SAR analysis of Agonists of the GPR35 Receptor using an Image-Based Assay - Set 3. [Related pubchem assays (depositor defined):AID1961, AID1965]; assay type: functional
Cannabinoid receptor 1 [10] = biological target: T5, Cannabinoid receptor 1; assay: SAR analysis of antagonists of the Cannabinoid Receptor 1 using an Image-Based Assay - Set 3. [Related pubchem assays (depositor defined):AID1961, AID1965]; assay type: functional
[11] = biological target: G-protein coupled receptor 55 (Homo sapiens, UniProt Q9Y2T6); assay: SAR analysis of selective Agonists of GPR55 using an Image-Based Assay - Set 2. [Related pubchem assays (depositor defined):AID1961, AID1965]; assay type: functional
Cannabinoid receptor 2 [12] = biological target: T6, Cannabinoid receptor 2 (Homo sapiens, UniProt P34972); assay: SAR analysis of agonists of the Cannabinoid Receptor 2 using an Image-Based Assay - Set 2. [Related pubchem assays (depositor defined):AID1961, AID1965]; assay type: functional
T6 sequence (P34972 whole entry): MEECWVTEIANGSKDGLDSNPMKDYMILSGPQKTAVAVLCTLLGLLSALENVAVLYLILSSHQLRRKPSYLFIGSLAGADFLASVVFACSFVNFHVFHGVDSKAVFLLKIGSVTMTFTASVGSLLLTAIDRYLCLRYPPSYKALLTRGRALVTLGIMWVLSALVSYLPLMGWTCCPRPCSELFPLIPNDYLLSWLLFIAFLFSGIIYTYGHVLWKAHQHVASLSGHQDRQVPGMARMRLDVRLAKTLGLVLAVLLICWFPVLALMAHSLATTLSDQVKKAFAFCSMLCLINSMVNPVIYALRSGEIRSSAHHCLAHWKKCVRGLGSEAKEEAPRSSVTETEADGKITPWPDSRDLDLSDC

Cannabinoid receptor 2 [13] = biological target: T6, Cannabinoid receptor 2; assay: SAR analysis of antagonists of the Cannabinoid Receptor 2 using an Image-Based Assay - Set 2. [Related pubchem assays (depositor defined):AID1961, AID1965]; assay type: functional

T1 sequence (Q00975 whole entry, the tested form may be a part): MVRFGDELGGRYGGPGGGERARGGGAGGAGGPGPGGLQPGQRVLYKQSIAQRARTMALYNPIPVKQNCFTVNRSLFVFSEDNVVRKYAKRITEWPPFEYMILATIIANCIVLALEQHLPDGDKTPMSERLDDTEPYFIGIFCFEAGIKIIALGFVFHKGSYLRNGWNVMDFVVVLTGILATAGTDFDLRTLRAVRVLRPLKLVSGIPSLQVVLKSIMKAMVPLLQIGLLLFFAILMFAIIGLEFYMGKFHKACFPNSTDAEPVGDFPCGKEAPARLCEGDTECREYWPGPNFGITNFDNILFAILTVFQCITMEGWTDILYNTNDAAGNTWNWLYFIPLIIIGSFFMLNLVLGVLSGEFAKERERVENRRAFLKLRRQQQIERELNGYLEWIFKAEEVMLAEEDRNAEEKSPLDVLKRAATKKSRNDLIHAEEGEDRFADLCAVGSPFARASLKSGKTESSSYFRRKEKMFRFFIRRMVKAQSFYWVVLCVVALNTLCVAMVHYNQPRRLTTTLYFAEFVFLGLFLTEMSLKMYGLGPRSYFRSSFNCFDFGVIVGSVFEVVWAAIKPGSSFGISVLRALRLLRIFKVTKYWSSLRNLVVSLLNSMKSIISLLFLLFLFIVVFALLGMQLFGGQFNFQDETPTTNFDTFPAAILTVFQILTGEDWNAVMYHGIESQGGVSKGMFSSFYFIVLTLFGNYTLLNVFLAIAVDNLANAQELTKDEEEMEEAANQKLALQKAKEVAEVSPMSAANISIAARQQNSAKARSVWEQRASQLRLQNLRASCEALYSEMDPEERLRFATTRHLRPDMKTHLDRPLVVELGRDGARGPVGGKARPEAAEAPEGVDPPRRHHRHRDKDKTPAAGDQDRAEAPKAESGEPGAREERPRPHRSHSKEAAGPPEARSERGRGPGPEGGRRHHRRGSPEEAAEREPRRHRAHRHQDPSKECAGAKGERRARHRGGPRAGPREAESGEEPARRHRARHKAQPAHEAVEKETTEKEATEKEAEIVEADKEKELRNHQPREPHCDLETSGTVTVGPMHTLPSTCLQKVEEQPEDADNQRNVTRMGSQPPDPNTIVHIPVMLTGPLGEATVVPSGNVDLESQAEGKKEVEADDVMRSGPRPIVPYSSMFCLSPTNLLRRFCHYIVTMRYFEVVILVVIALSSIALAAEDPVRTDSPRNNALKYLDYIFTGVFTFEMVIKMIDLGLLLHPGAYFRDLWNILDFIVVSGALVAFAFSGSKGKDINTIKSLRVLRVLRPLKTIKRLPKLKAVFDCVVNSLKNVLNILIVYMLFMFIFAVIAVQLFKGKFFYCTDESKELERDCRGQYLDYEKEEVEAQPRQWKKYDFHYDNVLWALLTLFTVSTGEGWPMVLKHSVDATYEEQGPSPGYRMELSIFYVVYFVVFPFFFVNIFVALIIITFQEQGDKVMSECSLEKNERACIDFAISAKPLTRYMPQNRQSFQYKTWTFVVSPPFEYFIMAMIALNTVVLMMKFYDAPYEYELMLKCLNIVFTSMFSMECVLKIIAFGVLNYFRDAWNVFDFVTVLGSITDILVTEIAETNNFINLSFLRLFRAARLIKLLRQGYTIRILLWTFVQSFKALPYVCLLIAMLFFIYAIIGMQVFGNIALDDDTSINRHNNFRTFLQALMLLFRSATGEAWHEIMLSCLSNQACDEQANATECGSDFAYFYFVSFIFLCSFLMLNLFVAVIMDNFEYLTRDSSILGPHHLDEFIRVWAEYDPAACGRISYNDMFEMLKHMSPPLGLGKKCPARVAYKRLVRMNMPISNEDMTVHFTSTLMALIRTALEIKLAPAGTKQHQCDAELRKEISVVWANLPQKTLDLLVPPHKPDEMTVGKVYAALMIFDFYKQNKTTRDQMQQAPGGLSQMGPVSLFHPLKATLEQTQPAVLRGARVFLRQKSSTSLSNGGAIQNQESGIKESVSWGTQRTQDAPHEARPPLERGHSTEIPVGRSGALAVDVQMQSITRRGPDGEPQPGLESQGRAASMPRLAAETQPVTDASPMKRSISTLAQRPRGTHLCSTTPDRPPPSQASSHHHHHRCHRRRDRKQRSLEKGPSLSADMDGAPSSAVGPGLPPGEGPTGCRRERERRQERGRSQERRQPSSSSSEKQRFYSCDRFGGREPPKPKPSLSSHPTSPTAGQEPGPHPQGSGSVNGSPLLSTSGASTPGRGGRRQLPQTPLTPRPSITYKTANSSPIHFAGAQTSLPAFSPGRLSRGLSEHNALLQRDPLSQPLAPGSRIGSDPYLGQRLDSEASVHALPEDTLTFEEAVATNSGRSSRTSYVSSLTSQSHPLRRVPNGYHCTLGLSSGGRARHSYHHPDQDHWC
T1 sequence (Q02410 whole entry, the tested form may be a part): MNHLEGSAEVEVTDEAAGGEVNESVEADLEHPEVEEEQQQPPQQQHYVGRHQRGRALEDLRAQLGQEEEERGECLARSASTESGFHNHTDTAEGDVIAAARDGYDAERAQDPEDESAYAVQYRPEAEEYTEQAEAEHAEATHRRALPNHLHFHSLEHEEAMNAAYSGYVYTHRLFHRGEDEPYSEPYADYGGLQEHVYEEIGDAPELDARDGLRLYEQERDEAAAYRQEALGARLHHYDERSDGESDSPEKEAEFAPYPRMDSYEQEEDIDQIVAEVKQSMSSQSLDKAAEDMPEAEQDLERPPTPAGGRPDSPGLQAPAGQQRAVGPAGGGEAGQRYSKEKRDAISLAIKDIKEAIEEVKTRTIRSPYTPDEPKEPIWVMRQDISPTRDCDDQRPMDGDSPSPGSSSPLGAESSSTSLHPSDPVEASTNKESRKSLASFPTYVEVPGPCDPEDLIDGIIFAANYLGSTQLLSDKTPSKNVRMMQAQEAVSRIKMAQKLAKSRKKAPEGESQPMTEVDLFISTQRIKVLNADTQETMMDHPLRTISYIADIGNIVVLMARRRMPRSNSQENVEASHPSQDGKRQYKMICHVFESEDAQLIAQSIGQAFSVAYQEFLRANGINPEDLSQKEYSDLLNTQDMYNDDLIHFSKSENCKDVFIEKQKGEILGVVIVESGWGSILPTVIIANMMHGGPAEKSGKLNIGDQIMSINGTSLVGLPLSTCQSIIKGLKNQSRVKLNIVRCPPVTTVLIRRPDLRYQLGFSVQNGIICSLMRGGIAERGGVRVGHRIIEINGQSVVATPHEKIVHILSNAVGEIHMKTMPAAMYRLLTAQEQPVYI

Structure (SMILES): Cc1cc(C)cc(-n2c3nc4ccccc4nc3c3c(=O)n(Cc4ccco4)cnc32)c1
IC50 [1]: 1.28 µM (active)
IC50 [2]: > 100 µM (inactive)
IC50 [3]: 34 µM (active)
EC50 [4]: > 260 µM (inactive)
IC50 [5]: 4.14 µM (active)

Structure (SMILES): COc1ccc(/C=C/C(=O)NC(=S)NNC(=O)c2cccnc2)cc1
Absolute IC50 (CHOP) [6]: 10 µM

IC50 [7]: > 32 µM (inactive)
EC50 (Cannabinoid receptor 1 [8]): > 32 µM (inactive)
EC50 [9]: > 32 µM (inactive)
IC50 (Cannabinoid receptor 1 [10]): 18.2 µM (inactive)
EC50 [11]: 17.7 µM (inactive)
EC50 (Cannabinoid receptor 2 [12]): > 32 µM (inactive)
IC50 (Cannabinoid receptor 2 [13]): > 32 µM (inactive)
Structure (SMILES): COc1ccc(S(=O)(=O)N2CCOCC2)cc1NC(=O)c1cc2c(s1)CCCCCC2
